In brackets after ≈: the same amount, converted by molar mass.
What was measured:
[1] = test system: Mycobacterium smegmatis ATCC 19420; assay: Broth microdilution MIC, M. smegmatis; type: cell-based; settings: Mycolicibacterium smegmatis, ATCC19420, M. smegmatis ATCC 19420; read-out: MIC Mycobacterium smegmatis ATCC 19420
Description: (§1) MICs in Mycobacterium smegmatis ATCC 19420 and Mycobacterium smegmatis ATCC 19420 derivatives were quantified using broth microdilution assays as described [Clinical and Laboratory Standards Institute (CLSI/NCCLS) (2009) Methods for Dilution Antimicrobial Susceptibility Tests for Bacteria That Grow Aerobically; Approved Standard, Eighth Edition. CLIS Document M07-A8 (CLIS, Wayne Pa.)].

[2] = test system: Mycobacterium avium ATCC 25291; assay: Microplate Alamar Blue assay (MABA) MIC, M. avium; type: cell-based; settings: ATCC25291, M. avium ATCC 25291
Description: (§2) Minimal inhibitory concentrations (MICs) in Mycobacterium tuberculosis H37Rv and Mycobacterium avium ATCC 25291 were quantified using microplate Alamar Blue assays as described (MABA; [Collins, L. & Franzblau, S. (1997) Microplate Alamar Blue assay versus BACTEC 460 system for high-throughput screening of compounds against Mycobacterium tuberculosis and Mycobacterium avium. Antimicrob. Agents Chemother. 41, 1004-1009]).

[3] = test system: Mycobacterium tuberculosis H37Rv; assay: Microplate Alamar Blue assay (MABA) MIC, M. tuberculosis; type: cell-based; settings: read-out: MIC Mycobacterium tuberculosis H37Rv
Description: as §2

[4] = test system: rifampin-resistant mutants, derivatives of M. smegmatis ATCC19420; assay: MICs in rifampin-resistant mutants (cross-resistance levels); type: cell-based, Mycobacterium smegmatis
Description: as §1

[5] = test system: Vero E6 ATCC CRL1586 cells; assay: Mammalian-cell cytotoxicity, minimal cytotoxic concentration (CellTiter96); type: cell-based
Protocol: Minimal cytotoxic concentrations (MCCs) against mammalian cells in culture were determined using Vero E6 ATCC CRL1586 cells and the CellTiter96 assay kit (Promega, Inc.). […]

Structure (SMILES)	MIC [1] [µg/mL]	MIC [2] [µg/mL]	MIC [3] [µg/mL]	cross-resistance of rifampin-resistant mutants to the compound [4]	MCC mammalian cells Vero E6 ATCC CRL1586 [5] [µg/mL]
COc1ccccc1NC(=O)C(Cc1ccccc1)NC(=O)c1ccccc1 (centres unmarked) [I-17]	0.39 (≈ 1.04 µM)	6.25 (≈ 16.7 µM)	3.13 (≈ 8.36 µM)	No rifampin-resistant mutant was found to exhibit cross-resistance	>37
COc1ccccc1C(=O)NC(Cc1ccccc1)C(=O)Nc1ccccc1C (centres unmarked) [I-25]	6.25 (≈ 16.1 µM)	–	> 50	No rifampin-resistant mutant was found to exhibit cross-resistance	57
CCCOc1ccccc1NC(=O)C(Cc1ccccc1)NC(=O)c1ccccc1 (centres unmarked) [I-39]	0.78 (≈ 1.94 µM)	> 50	6.25 (≈ 15.5 µM)	No rifampin-resistant mutant was found to exhibit cross-resistance	20
Cc1ccccc1NC(=O)C(Cc1ccccc1)NC(=O)c1ccccc1Cl (centres unmarked) [I-91]	0.39 (≈ 0.993 µM)	> 50	> 50	No rifampin-resistant mutant was found to exhibit cross-resistance	19
Cc1ccc(Br)cc1NC(=O)C(Cc1ccccc1)NC(=O)c1ccccc1 (centres unmarked) [I-97]	0.78 (≈ 1.78 µM)	> 50	25 (≈ 57.2 µM)	No rifampin-resistant mutant was found to exhibit cross-resistance	–
Cc1ccccc1NC(=O)C(Cc1ccccc1)NC(=O)c1ccccc1Br (centres unmarked) [I-102]	3.12 (≈ 7.15 µM)	–	> 50	No rifampin-resistant mutant was found to exhibit cross-resistance	29
Cc1ccccc1NC(=O)C(Cc1ccccc1)NC(=O)c1ccccc1C (centres unmarked) [I-112]	0.39 (≈ 1.05 µM)	> 50	> 50	No rifampin-resistant mutant was found to exhibit cross-resistance	13
Cc1ccccc1NC(=O)C(Cc1ccc(OC(=O)c2ccccc2)cc1)NC(=O)c1ccccc1 (centres unmarked) [I-236, 4-(2-benzamido-3-oxo-3-(o-tolylamino)propyl)phenyl benzoate]	0.39 (≈ 0.815 µM)	–	25 (≈ 52.2 µM)	No rifampin-resistant mutant was found to exhibit cross-resistance	>48
Cc1ccccc1NC(=O)C(Cc1ccccc1)NC(=O)c1cccnc1 (centres unmarked) [II-13]	6.25 (≈ 17.4 µM)	–	> 50	No rifampin-resistant mutant was found to exhibit cross-resistance	>36
Cn1nnc2cccc(NC(=O)C(Cc3ccccc3)NC(=O)c3ccccc3)c21 (centres unmarked) [IX-224, N-(1-((1-methyl-1H-benzo[d][1,2,3]triazol-7-yl)amino)-1-oxo-3-phenylpropan-2-yl)benzamide]	0.39 (≈ 0.976 µM)	25 (≈ 62.6 µM)	6.25 (≈ 15.6 µM)	–	>100
Cn1ncc2c(NC(=O)C(Cc3ccccc3)NC(=O)c3ccccc3)cccc21 (centres unmarked) [IX-225, N-(1-((1-methyl-1H-indazol-4-yl)amino)-1-oxo-3-phenylpropan-2-yl)benzamide]	0.195 (≈ 0.489 µM)	1.56 (≈ 3.92 µM)	1.56 (≈ 3.92 µM)	–	45
O=C(NC(Cc1ccccc1)C(=O)Nc1cccc2nc[nH]c12)c1ccccc1 (centres unmarked) [IX-230, N-(1-((1H-benzo[d]imidazol-7-yl)amino)-1-oxo-3-phenylpropan-2-yl)benzamide]	0.39 (≈ 1.01 µM)	25 (≈ 65 µM)	50 (≈ 130 µM)	–	84
Cn1ccc2cccc(NC(=O)C(Cc3ccccc3)NC(=O)c3ccccc3)c21 (centres unmarked) [IX-231, N-(1-((1-methyl-1H-indol-7-yl)amino)-1-oxo-3-phenylpropan-2-yl)benzamide]	1.56 (≈ 3.92 µM)	> 50	25 (≈ 62.9 µM)	–	>100
Cn1cnc2cccc(NC(=O)C(Cc3ccccc3)NC(=O)c3ccccc3)c21 (centres unmarked) [IX-232, N-(1-((1-methyl-1H-benzo[d]imidazol-7-yl)amino)-1-oxo-3-phenyl-propan-2-yl)benzamide]	1.56 (≈ 3.92 µM)	25 (≈ 62.7 µM)	25 (≈ 62.7 µM)	–	96
O=C(NC(Cc1ccccc1)C(=O)Nc1cccc2ncsc12)c1ccccc1 (centres unmarked) [IX-234, N-(1-(benzo[d]thiazol-7-ylamino)-1-oxo-3-phenylpropan-2-yl)benz-amide]	0.39 (≈ 0.971 µM)	3.12 (≈ 7.78 µM)	3.12 (≈ 7.78 µM)	–	80
O=C(NC(Cc1ccccc1)C(=O)Nc1cccc2[nH]ncc12)c1cccc2[nH]ccc12 (centres unmarked) [IX-241, N-(1-((1H-indazol-4-yl)amino)-1-oxo-3-phenylpropan-2-yl)-1H-indole-4-carboxamide]	0.78 (≈ 1.84 µM)	12.5 (≈ 29.5 µM)	25 (≈ 59 µM)	–	36
O=C(NC(Cc1ccccc1)C(=O)Nc1ccccc1N1CCNCC1)c1cccc2[nH]ccc12 (centres unmarked) [IX-242, N-(1-oxo-3-phenyl-1-((2-(piperazin-1-yl)phenyl)amino)propan-2-yl)-1H-indole-4-carboxamide]	0.04 (≈ 0.0855 µM)	0.78 (≈ 1.67 µM)	3.12 (≈ 6.68 µM)	–	12
O=C(NC(Cc1ccccc1)C(=O)Nc1cc(F)ccc1N1CCNCC1)c1cccc2[nH]ccc12 (centres unmarked) [IX-243]	0.19 (≈ 0.391 µM)	0.78 (≈ 1.61 µM)	6.25 (≈ 12.9 µM)	–	11
COc1ccc(F)cc1NC(=O)C(Cc1ccccc1)NC(=O)c1cccc2[nH]ccc12 (centres unmarked) [IX-244, N-(1-((5-fluoro-2-methoxyphenyl)amino)-1-oxo-3-phenylpropan-2-yl)-1H-indole-4-carboxamide]	0.78 (≈ 1.81 µM)	3.12 (≈ 7.24 µM)	6.25 (≈ 14.5 µM)	–	58
O=C(NC(Cc1ccc(O)cc1)C(=O)Nc1cc(F)ccc1N1CCNCC1)c1ccccc1 (centres unmarked) [IX-246, N-(1-((5-fluoro-2-(piperazin-1-yl)phenyl)amino)-3-(4-hydroxy-phenyl)-1-oxopropan-2-yl)benzamide]	0.195 (≈ 0.422 µM)	0.78 (≈ 1.69 µM)	3.12 (≈ 6.76 µM)	–	34
CC1CN(c2ccccc2NC(=O)C(Cc2ccccc2)NC(=O)c2ccccc2)CC(C)O1 (centres unmarked) [IX-265, N-(1-((2-(2,6-dimethylmorpholino)phenyl)amino)-1-oxo-3-phenyl-propan-2-yl)benzamide]	1.56 (≈ 3.41 µM)	6.25 (≈ 13.7 µM)	6.25 (≈ 13.7 µM)	–	>100
CC1CN(c2ccccc2NC(=O)C(Cc2ccc(O)cc2)NC(=O)c2ccccc2)CC(C)O1 (centres unmarked) [IX-266, N-(1-((2-(2,6-dimethylmorpholino)phenyl)amino)-3-(4-hydroxy-phenyl)-1-oxopropan-2-yl)benzamide]	1.56 (≈ 3.29 µM)	6.25 (≈ 13.2 µM)	6.25 (≈ 13.2 µM)	–	71
COc1ccc(Cl)cc1NC(=O)C(Cc1ccccc1)NC(=O)c1ccccc1F (centres unmarked) [IX-278, N-(1-((5-chloro-2-methoxyphenyl)amino)-1-oxo-3-phenylpropan-2-yl)-2-fluorobenzamide]	0.39 (≈ 0.914 µM)	2.3 (≈ 5.39 µM)	0.78 (≈ 1.83 µM)	–	29
COc1ccc(Cl)cc1NC(=O)C(Cc1ccccc1)NC(=O)c1ccccc1C (centres unmarked) [IX-279, N-(1-((5-chloro-2-methoxyphenyl)amino)-1-oxo-3-phenylpropan-2-yl)-2-methylbenzamide]	1.56 (≈ 3.69 µM)	0.78 (≈ 1.84 µM)	0.78 (≈ 1.84 µM)	–	87
O=C(NC(Cc1ccccc1)C(=O)Nc1cccc2nc[nH]c12)c1ccccc1F (centres unmarked) [IX-280, N-(1-((1H-benzo[d]imidazol-7-yl)amino)-1-oxo-3-phenylpropan-2-yl)-2-fluorobenzamide]	1.56 (≈ 3.88 µM)	25 (≈ 62.1 µM)	12.5 (≈ 31.1 µM)	–	78
Cc1ccccc1C(=O)NC(Cc1ccccc1)C(=O)Nc1cccc2nc[nH]c12 (centres unmarked) [IX-281, N-(1-((1H-benzo[d]imidazol-7-yl)amino)-1-oxo-3-phenylpropan-2-yl)-2-methylbenzamide]	0.78 (≈ 1.96 µM)	12.5 (≈ 31.4 µM)	12.5 (≈ 31.4 µM)	–	92
Cc1ccccc1C(=O)NC(Cc1ccccc1)C(=O)Nc1cccc2c1cnn2C (centres unmarked) [IX-297, 2-methyl-N-(1-((1-methyl-1H-indazol-4-yl)amino)-1-oxo-3-phenyl-propan-2-yl)benzamide]	0.78 (≈ 1.89 µM)	12.5 (≈ 30.3 µM)	12.5 (≈ 30.3 µM)	–	>100
CC(=O)N1CCCN(c2ccc(F)cc2NC(=O)C(Cc2ccccc2)NC(=O)c2ccccc2F)CC1 (centres unmarked) [IX-319, N-(1-((2-(4-acetyl-1,4-diazepan-1-yl)-5-fluorophenyl)amino)-1-oxo-3-phenylpropan-2-yl)-2-fluorobenzamide]	0.39 (≈ 0.749 µM)	6.25 (≈ 12 µM)	3.12 (≈ 6 µM)	–	>100

Reference: patent US9919998B2, “Antibacterial agents: Nα-aroyl-N-aryl-phenylalaninamides” (priority 2014, dated 2018)
